PubChem BioAssay AID2202554 (NIEHS Division of Translational Toxicology (DTT))
Records with an inconclusive call do not appear. Activity calls are given as the source filed them. How the calls were made is not given here.

system: S. typhimurium/E. coli reverse mutation, colony counts; test: Bacterial reverse mutation test (aka Ames test) summary data
In short: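 Revertant colony counts on plates, compared with untreated controls, after about two days of growth. Exposure with or without liver S9 (rat/hamster/mouse), dose range per strain, 20-min 37° C preincubation or direct plate incorporation. Strains: his⁻ Salmonella, trp⁻ E. coli WP2 uvrA pKM101.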

Q: With `c1ccc2c(c1)ccc1ncccc12` as the molecule, how does the outcome read?
A: active; positive

Q: For `NC1CCCCC1`, which outcome is on record?
A: inactive; negative

Q: With `C[C@]12CCC(=O)C=C1CC[C@@H]1[C@@H]2CC[C@]2(C)C(=O)CC[C@@H]12` as the molecule, how does the outcome read?
A: inactive; negative

Q: With `O=c1[nH]cnc2[nH]ncc12` as the molecule, how does the outcome read?
A: active; weakly positive

Q: With `COc1ccc2nc(N)sc2c1` as the molecule, how does the outcome read?
A: active; positive

Q: For `O=C(NCO)NCO`, which outcome is on record?
A: active; positive

Q: Which outcome does the source give for `O=C(Nc1ccc(Br)cc1)c1cc(Br)cc(Br)c1O` here?
A: inactive; negative

Q: For `CC12CCC(CC1)C(C)(C)O2`, which outcome is on record?
A: inactive; negative

Q: How did the outcome turn out when `C[C@]12CC[C@@H]3c4ccc(O)cc4CC[C@H]3[C@@H]1CC[C@@H]2O` was run?
A: inactive; negative

Q: How did the outcome turn out when `CCOc1ccc(N=Nc2ccc(-c3ccc(N=Nc4c(O)ccc5cc(S(=O)(=O)O)cc(S(=O)(=O)O)c45)c(C)c3)cc2C)cc1` was run?
A: inactive; negative

Q: For `CC[C@]12CCCN3CCc4c(n(c5ccccc45)[C@@](O)(C(=O)OC)C1)[C@@H]32`, which outcome is on record?
A: inactive; negative

Q: With `O=C([O-])c1ccccn1.O=C([O-])c1ccccn1.O=C([O-])c1ccccn1.[Cr+3]` as the molecule, how does the outcome read?
A: inactive; negative

Q: For `CC1CCC(CO)CC1` (centres undefined), which outcome is on record?
A: inactive; negative

Q: Which outcome does the source give for `CC[C@H]1OC(=O)[C@H](C)[C@@H](O[C@H]2C[C@@](C)(OC)[C@@H](O)[C@H](C)O2)[C@H](C)[C@@H](O[C@@H]2O[C@H](C)C[C@H](N(C)C)[C@H]2O)[C@](C)(O)C[C@@H](C)C(=O)[C@H](C)[C@@H](O)[C@]1(C)O` here?
A: inactive; negative

Q: With `ClC(Cl)(Cl)Cl` as the molecule, how does the outcome read?
A: inactive; negative

Q: With `N#CC(Br)Br` as the molecule, how does the outcome read?
A: active; positive

Q: Which outcome does the source give for `CN=c1ccc2nc3ccc(N)cc3sc-2c1` here?
A: active; positive

Q: `CC(=O)Nc1ccc(O)cc1` was tested. Which outcome did it give?
A: inactive; negative

Q: How did the outcome turn out when `CC=C(C)C#N` was run?
A: inactive; negative

Q: `Nc1ncn[nH]1` was tested. Which outcome did it give?
A: inactive; negative

Q: For `O=C1OC(=O)c2c(Br)c(Br)c(Br)c(Br)c21`, which outcome is on record?
A: inactive; negative

Q: How did the outcome turn out when `Oc1ccc(Cl)c(Cl)c1Cl` was run?
A: inactive; negative

Q: With `c1ccc(Oc2ccccc2)cc1` as the molecule, how does the outcome read?
A: inactive; negative

Q: For `O=[N+]([O-])c1ccccc1CCO`, which outcome is on record?
A: active; positive

Q: With `COP(=S)(OC)Oc1ccc(SC)c(C)c1` as the molecule, how does the outcome read?
A: active; weakly positive

Q: Which outcome does the source give for `Brc1cccc(-c2ccccc2)c1` here?
A: inactive; negative

Q: `CCOP(=O)(OCC)OCC` was tested. Which outcome did it give?
A: inactive; negative

Q: `C=CCC` was tested. Which outcome did it give?
A: inactive; negative

Q: For `COCCO`, which outcome is on record?
A: inactive; negative

Q: For `C=CC1(C)OC(=O)N(c2cc(Cl)cc(Cl)c2)C1=O` (centres undefined), which outcome is on record?
A: inactive; negative

Q: For `F`, which outcome is on record?
A: inactive; negative

Q: `Cc1ccc(Nc2ccc(Nc3ccc(C)cc3S(=O)(=O)O)c3c2C(=O)c2ccccc2C3=O)c(S(=O)(=O)O)c1` was tested. Which outcome did it give?
A: active; weakly positive

Q: For `Nc1ccc(Cc2ccc(N)c(Cc3ccc(N)cc3)c2)cc1`, which outcome is on record?
A: active; positive

Q: Which outcome does the source give for `CCCCCCCCCCCC(=O)N(CCO)CCO` here?
A: inactive; negative

Q: How did the outcome turn out when `CNc1ccc(O)cc1` was run?
A: active; positive

Q: With `Nc1cc(Cl)c([N+](=O)[O-])cc1O` as the molecule, how does the outcome read?
A: active; positive

Q: With `CCCCCCOCC1CO1` (centres undefined) as the molecule, how does the outcome read?
A: active; positive

Q: For `Cc1cc(C(=O)O)ccc1[N+](=O)[O-]`, which outcome is on record?
A: active; positive

Q: How did the outcome turn out when `COC(=O)[C@H]1[C@H]2C[C@@H]3c4[nH]c5cc(OC)ccc5c4CCN3C[C@H]2C[C@@H](OC(=O)c2cc(OC)c(OC)c(OC)c2)[C@@H]1OC` was run?
A: inactive; negative

Q: `O=C(O)c1ccccc1[N+](=O)[O-]` was tested. Which outcome did it give?
A: active; positive

Q: How did the outcome turn out when `NCCS(=O)(=O)O` was run?
A: inactive; negative

Q: How did the outcome turn out when `Oc1ccc(Cl)cc1Cc1ccccc1` was run?
A: inactive; negative

Q: `O=[N+]([O-])c1ccccc1CCl` was tested. Which outcome did it give?
A: active; positive

Q: `C=C(C)C#N` was tested. Which outcome did it give?
A: inactive; negative

Q: With `O=C(O)CC(O)(CC(=O)OO)C(=O)O` (centres undefined) as the molecule, how does the outcome read?
A: inactive; negative

Q: With `C=CCCl` as the molecule, how does the outcome read?
A: active; positive

Q: How did the outcome turn out when `C=CCCC` was run?
A: inactive; negative

Q: For `CC(COC(=O)c1ccccc1)(COC(=O)c1ccccc1)COC(=O)c1ccccc1`, which outcome is on record?
A: inactive; negative

Q: `CNC(=S)N(C)C` was tested. Which outcome did it give?
A: inactive; negative

Q: `C[N+](=O)[O-]` was tested. Which outcome did it give?
A: inactive; negative

Q: How did the outcome turn out when `S=c1[nH][nH]c(=S)s1` was run?
A: inactive; negative

Q: For `CN(C)CCN(Cc1ccccc1)c1ccccn1`, which outcome is on record?
A: inactive; negative

Q: For `Oc1c(I)cc(Cl)c2cccnc12`, which outcome is on record?
A: inactive; negative

Q: With `Cc1cc(-c2ccc(N)c(C)c2)ccc1N` as the molecule, how does the outcome read?
A: active; positive

Q: How did the outcome turn out when `Oc1c(Cl)ccc(Cl)c1Cl` was run?
A: inactive; negative

Q: How did the outcome turn out when `O=C(O)c1cc(N=Nc2ccc([N+](=O)[O-])cc2)ccc1O` was run?
A: active; positive

Q: Which outcome does the source give for `CC(=O)c1c(=O)cc(C)oc1=O` here?
A: inactive; negative

Q: For `COc1ccc(C=O)cc1`, which outcome is on record?
A: inactive; negative

Q: With `CCc1cccc(N)c1` as the molecule, how does the outcome read?
A: inactive; negative

Q: Which outcome does the source give for `O=C(O)C(F)(F)C(F)(F)C(F)(F)C(F)(F)C(F)(F)C(F)(F)C(F)(F)C(F)(F)F` here?
A: inactive; negative

Q: With `CC(=O)NNc1ccccc1` as the molecule, how does the outcome read?
A: active; positive

Q: Which outcome does the source give for `CS(=O)(=O)OCCCCOS(C)(=O)=O` here?
A: active; positive

Q: How did the outcome turn out when `CCc1cccc(C)c1N(C(=O)CCl)C(C)COC` (centres undefined) was run?
A: inactive; negative

Q: For `CCOC(=O)C1OC1(C)c1ccccc1` (centres undefined), which outcome is on record?
A: inactive; negative

Q: `Cc1ccc(NC(N)=O)cc1` was tested. Which outcome did it give?
A: inactive; negative

Q: Which outcome does the source give for `O=C1c2ccccc2C(=O)c2ccccc21` here?
A: active; positive

Q: For `O=C(O)CCCc1ccc(N(CCCl)CCCl)cc1`, which outcome is on record?
A: active; positive

Q: How did the outcome turn out when `CCCBr` was run?
A: inactive; negative

Q: Which outcome does the source give for `BrCC1CO1` (centres undefined) here?
A: active; positive

Q: How did the outcome turn out when `Clc1ccc(Cl)c(Cl)c1Cl` was run?
A: inactive; negative

Q: For `NC(=O)c1ncn([C@@H]2O[C@H](CO)[C@@H](O)[C@H]2O)n1`, which outcome is on record?
A: inactive; negative

Q: How did the outcome turn out when `O=[N+]([O-])c1cc([N+](=O)[O-])c2ccc(S(=O)(=O)O)cc2c1O` was run?
A: active; positive

Q: `CCCCCCOC(=O)c1ccccc1` was tested. Which outcome did it give?
A: inactive; negative

Q: Which outcome does the source give for `CC(N)CN` (centres undefined) here?
A: inactive; negative

Q: Which outcome does the source give for `C=C(F)F` here?
A: active; positive

Q: `O=C1C(c2[nH]c3ccccc3c2O)=Nc2ccccc21` was tested. Which outcome did it give?
A: active; positive

Q: How did the outcome turn out when `O=C1c2ccccc2-c2ccc3c4ccc5c6c(ccc(c7ccc1c2c73)c64)C(=O)c1ccccc1-5` was run?
A: active; weakly positive

Q: `CC(C)(C)c1ccc(OCC2CO2)cc1` (centres undefined) was tested. Which outcome did it give?
A: active; positive

Q: Which outcome does the source give for `O=C(O)C(Cl)Cl` here?
A: active; positive

Q: How did the outcome turn out when `CC=CC=O` was run?
A: active; positive

Q: For `CC/C(=C(/CC)c1ccc(O)cc1)c1ccc(O)cc1`, which outcome is on record?
A: inactive; negative

Q: `Clc1cc(Cl)c(Cl)c(Cl)c1` was tested. Which outcome did it give?
A: inactive; negative

Q: For `CCCCCCCCCCCC(C)=O`, which outcome is on record?
A: inactive; negative

Q: For `NC(=O)c1ccccc1[N+](=O)[O-]`, which outcome is on record?
A: active; positive

Q: How did the outcome turn out when `CC(C)CCC[C@@H](C)[C@H]1CC[C@H]2[C@@H]3CC=C4C[C@@H](OC(=O)Cc5ccc(N(CCCl)CCCl)cc5)CC[C@]4(C)[C@H]3CC[C@]12C` was run?
A: inactive; negative

Q: Which outcome does the source give for `ClC(Cl)Br` here?
A: inactive; negative

Q: Which outcome does the source give for `Nc1ccc2ccccc2c1N=Nc1ccc([N+](=O)[O-])cc1` here?
A: active; positive

Q: For `CC(Cl)CN(C)C` (centres undefined), which outcome is on record?
A: active; positive

Q: With `CCCN(CCC)S(=O)(=O)c1ccc(C(=O)O)cc1` as the molecule, how does the outcome read?
A: inactive; negative
